Data taken from publication doi:10.1101/2025.03.25.645215v1 (biorxiv, 2025).
Blank lines part the entries; values can stand above or below the molecule they belong to.

Columns and labels:
SERT (hSERT) = SERT (hSERT) (Homo sapiens, UniProt P31645); assay: 3H-5HT uptake inhibition, HEK293, 384-well; assay type: cell-based
[1] = target: T1, B^0AT2/SLC6A15 (eGFP-hSLC6A15) (Homo sapiens, UniProt Q9H2J7); assay: cell-based; parameters: species or system HEK293 eGFP-hSLC6A15
T1 sequence (Q9H2J7 1-730): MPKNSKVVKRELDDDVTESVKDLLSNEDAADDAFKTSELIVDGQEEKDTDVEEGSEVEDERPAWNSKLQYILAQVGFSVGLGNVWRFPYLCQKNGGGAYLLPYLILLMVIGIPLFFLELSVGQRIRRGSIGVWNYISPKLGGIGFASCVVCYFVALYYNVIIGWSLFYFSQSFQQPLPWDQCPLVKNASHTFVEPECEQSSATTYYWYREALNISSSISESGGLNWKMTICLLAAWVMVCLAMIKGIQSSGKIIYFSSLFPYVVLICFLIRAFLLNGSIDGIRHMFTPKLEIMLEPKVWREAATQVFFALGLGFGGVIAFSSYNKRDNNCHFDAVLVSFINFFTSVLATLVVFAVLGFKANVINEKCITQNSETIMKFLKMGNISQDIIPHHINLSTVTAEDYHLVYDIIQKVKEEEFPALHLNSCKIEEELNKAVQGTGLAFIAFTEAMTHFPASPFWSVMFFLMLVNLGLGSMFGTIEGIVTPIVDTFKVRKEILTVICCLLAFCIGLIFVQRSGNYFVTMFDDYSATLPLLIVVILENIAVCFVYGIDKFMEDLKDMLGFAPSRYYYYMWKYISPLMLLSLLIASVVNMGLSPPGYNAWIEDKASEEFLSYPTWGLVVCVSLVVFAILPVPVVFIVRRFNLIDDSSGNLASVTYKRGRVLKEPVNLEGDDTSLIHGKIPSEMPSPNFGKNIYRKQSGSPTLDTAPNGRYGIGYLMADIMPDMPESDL

GAT1 (hGAT1) = GAT1 (hGAT1) (Homo sapiens, UniProt P30531); assay: 3H-GABA uptake inhibition, HEK293, 384-well; assay type: cell-based
[2] = test system: NTT4/SLC6A17 (NTT4-B^0AT2 chimera); assay: 3H-proline uptake inhibition, HEK293, 384-well; assay type: cell-based; conditions: blanket statement for all 1,5-benzodiazepine analogs
DAT (hDAT) = DAT (hDAT) (Homo sapiens, UniProt Q01959); assay: 3H-dopamine uptake inhibition, HEK293, 384-well; assay type: cell-based
[3] = target: T1, B^0AT2/SLC6A15 (eGFP-hSLC6A15); assay: cell-based; parameters: species or system HEK293 eGFP-hSLC6A15; remark: listed apart in the source
[4] = target: T1, B^0AT2/SLC6A15 (eGFP-hSLC6A15); assay: cell-based; parameters: species or system HEK293 eGFP-hSLC6A15; remark: listed apart in the source
[5] = target: T2, B^0AT2/SLC6A15 (AAV mouse SLC6A15 in primary hippocampal neurons) (Mus musculus, UniProt Q8BG16); assay: 3H-proline uptake inhibition, AAV-transduced primary hippocampal neurons; assay type: cell-based
T2 sequence (Q8BG16 1-729): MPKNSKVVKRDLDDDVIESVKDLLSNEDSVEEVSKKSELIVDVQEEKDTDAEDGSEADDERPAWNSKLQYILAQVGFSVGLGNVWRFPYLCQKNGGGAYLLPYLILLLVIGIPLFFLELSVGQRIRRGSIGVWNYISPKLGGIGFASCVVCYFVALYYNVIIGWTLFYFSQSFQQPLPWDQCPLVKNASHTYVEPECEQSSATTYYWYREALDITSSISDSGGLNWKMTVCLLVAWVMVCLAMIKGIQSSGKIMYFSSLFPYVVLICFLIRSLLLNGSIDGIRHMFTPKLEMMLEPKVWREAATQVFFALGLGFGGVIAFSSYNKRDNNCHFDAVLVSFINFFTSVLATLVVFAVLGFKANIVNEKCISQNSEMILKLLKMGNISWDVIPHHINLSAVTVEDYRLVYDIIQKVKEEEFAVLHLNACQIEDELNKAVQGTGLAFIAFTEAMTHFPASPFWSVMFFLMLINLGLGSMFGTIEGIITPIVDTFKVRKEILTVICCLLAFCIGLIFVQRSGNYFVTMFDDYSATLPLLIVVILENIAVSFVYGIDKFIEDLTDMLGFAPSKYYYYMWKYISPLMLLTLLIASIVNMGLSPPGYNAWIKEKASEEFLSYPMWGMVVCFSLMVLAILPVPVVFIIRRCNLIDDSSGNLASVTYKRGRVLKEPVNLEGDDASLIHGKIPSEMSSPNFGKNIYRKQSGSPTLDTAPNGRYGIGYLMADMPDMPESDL

[6] = target: T1, B^0AT2/SLC6A15 (eGFP-hSLC6A15); assay: inhibition of 3H-proline uptake, HEK293; assay type: cell-based
[7] = target: T1, B^0AT2/SLC6A15 (eGFP-hSLC6A15); assay: inhibition of 3H-proline uptake by unlabelled proline, HEK293; assay type: cell-based
[8] = substrate: O=C(O)[C@@H]1CCCN1; assay: cells, lysate or membranes; conditions: labelled compound, pH 7.4, 120 mM Na+

Chain of DAT (hDAT) (Q01959 whole entry): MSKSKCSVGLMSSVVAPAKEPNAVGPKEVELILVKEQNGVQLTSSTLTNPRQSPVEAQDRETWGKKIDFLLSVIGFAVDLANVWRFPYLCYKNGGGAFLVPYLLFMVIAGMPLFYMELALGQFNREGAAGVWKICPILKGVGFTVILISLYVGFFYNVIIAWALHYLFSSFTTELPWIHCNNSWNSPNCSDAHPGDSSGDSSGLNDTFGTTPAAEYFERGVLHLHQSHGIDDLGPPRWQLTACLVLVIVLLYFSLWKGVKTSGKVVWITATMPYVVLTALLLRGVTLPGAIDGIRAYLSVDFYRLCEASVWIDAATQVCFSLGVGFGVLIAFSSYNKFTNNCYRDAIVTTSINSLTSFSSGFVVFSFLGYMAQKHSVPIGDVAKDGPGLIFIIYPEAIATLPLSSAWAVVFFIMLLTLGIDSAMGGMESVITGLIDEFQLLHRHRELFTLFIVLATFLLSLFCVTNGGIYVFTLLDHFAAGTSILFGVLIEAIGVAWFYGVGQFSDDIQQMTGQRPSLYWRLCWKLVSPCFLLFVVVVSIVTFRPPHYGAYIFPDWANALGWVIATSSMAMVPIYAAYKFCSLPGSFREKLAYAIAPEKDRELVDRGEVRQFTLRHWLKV
Chain of SERT (hSERT) (P31645 whole entry): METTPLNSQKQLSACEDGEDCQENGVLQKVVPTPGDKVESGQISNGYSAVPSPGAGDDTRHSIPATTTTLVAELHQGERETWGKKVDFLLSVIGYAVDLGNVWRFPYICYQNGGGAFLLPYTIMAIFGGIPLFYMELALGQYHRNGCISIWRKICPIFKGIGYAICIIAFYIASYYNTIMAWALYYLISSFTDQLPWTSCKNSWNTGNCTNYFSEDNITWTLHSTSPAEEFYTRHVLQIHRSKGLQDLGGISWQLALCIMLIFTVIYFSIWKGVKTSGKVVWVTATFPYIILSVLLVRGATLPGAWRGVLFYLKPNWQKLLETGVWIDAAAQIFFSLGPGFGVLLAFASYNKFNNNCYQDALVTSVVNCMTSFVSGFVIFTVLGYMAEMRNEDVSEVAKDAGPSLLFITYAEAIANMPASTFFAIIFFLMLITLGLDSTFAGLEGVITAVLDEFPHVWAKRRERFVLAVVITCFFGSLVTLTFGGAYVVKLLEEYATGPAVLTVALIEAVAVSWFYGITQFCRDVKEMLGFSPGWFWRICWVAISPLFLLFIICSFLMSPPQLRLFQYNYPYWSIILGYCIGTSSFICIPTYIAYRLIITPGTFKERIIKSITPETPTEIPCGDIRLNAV
Chain of GAT1 (hGAT1) (P30531 whole entry): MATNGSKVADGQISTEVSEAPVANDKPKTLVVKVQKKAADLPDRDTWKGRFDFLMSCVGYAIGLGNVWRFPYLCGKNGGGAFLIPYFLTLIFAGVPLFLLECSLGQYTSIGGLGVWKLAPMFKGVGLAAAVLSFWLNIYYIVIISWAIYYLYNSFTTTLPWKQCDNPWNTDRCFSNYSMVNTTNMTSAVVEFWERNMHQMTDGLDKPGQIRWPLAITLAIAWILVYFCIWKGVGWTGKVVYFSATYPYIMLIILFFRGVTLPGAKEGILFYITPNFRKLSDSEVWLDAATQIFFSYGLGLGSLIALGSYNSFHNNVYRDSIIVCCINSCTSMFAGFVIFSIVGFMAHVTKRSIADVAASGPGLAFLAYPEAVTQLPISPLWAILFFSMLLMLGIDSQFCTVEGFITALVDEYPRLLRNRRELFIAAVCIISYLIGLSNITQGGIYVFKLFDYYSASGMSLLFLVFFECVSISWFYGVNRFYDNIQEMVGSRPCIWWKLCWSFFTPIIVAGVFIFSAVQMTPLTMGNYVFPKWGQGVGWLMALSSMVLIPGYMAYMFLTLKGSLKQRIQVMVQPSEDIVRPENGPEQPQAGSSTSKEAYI

Molecule: COc1cc(C2C3=C(CCCC3=O)Nc3ccccc3N2C(=O)c2ccccc2)ccc1O (stereo not drawn) [10a]
IC50 (SERT (hSERT)): > 80 µM
IC50 [1]: 0.93 ± 0.08 µM
IC50 (GAT1 (hGAT1)): > 80 µM
IC50 [2]: > 80 µM

Molecule: COc1ccc(C2C3=C(CCCC3=O)Nc3ccccc3N2C(=O)c2ccccc2)cc1 (stereo not drawn) [10c]
IC50 [1]: 0.66 ± 0.07 µM

Molecule: O=C1CCCC2=C1C(c1ccc(Cl)c(Cl)c1)N(C(=O)c1ccccc1)c1ccccc1N2 (stereo not drawn) [10d]
IC50 [1]: 2.5 ± 0.4 µM

Molecule: O=C1CCCC2=C1C(c1ccc(F)cc1)N(C(=O)c1ccccc1)c1ccccc1N2 (stereo not drawn) [10e]
IC50 [1]: 2.9 ± 0.6 µM

Molecule: O=C1CCCC2=C1C(c1ccccc1)N(C(=O)c1ccccc1)c1ccccc1N2 (stereo not drawn) [10f]
IC50 [1]: 1.2 ± 0.2 µM

Molecule: COc1ccc(C2C3=C(CC(C)CC3=O)Nc3ccccc3N2C(=O)c2ccccc2)cc1 (stereo not drawn) [14c]
IC50 (SERT (hSERT)): > 80 µM
IC50 (DAT (hDAT)): > 80 µM
IC50 [4]: 0.24 ± 0.05 µM
IC50 (GAT1 (hGAT1)): > 80 µM
IC50 [2]: > 80 µM
IC50 [5]: 1 ± 0.4 µM

Molecule: CC(C)C[C@H](N)C(=O)O [leucine]
IC50 [6]: 210 ± 30 µM

Molecule: O=C(O)[C@@H]1CCCN1 [proline]
IC50 [7]: 257 ± 53 µM

B1: B^0AT2/SLC6A15 (eGFP-hSLC6A15) (Homo sapiens) (protein)
chain: T1 sequence (Q9H2J7 1-730)
Km [8]: 960 ± 51 µM

Second part, the molecule after the results:

IC50 (SERT (hSERT)): > 80 µM
IC50 (DAT (hDAT)): > 80 µM
IC50 (GAT1 (hGAT1)): > 80 µM
IC50 [3]: 0.8 ± 0.3 µM
IC50 [2]: > 80 µM
Molecule: CC1(C)CC(=O)C2=C(C1)Nc1ccccc1N(C(=O)c1ccccc1)C2c1ccc2c(c1)OCO2 (stereo not drawn) [11x]

IC50 (SERT (hSERT)): > 80 µM
IC50 (DAT (hDAT)): > 80 µM
IC50 [4]: 0.49 ± 0.03 µM
IC50 (GAT1 (hGAT1)): > 80 µM
IC50 [2]: > 80 µM
Molecule: COc1ccc(C2C3=C(CC(c4ccco4)CC3=O)Nc3ccccc3N2C(=O)c2ccccc2)cc1 (stereo not drawn) [14d]
